Source: US10717729B2, “Thiamine-organic acid salt” (Purdue Research Foundation, priority 2018, dated 2020)
Where a name gives a salt, the structure may show the parent alone.

Columns and labels:
[1] = dynamic moisture sorption, 25° C.
Experimental: Moisture sorption profiles were generated at 25° C. using an SGA-100 symmetrical gravimetric analyzer (TA Instrument, New Castle, Del.). The samples (5-20 mg) were exposed to 25% to 95% relative humidity (RH) at step size of 5% RH and from 95 to 99% RH at step size of 1% RH, with a maximum step time of 360 min. The equilibrium criteria were set to change of mass of less than 0.01% (w/w) for 5 min for each step. Nitrogen was used as the purge gas.

Row | SMILES | relative humidity at which high/elevated hygroscopicity is seen [1] | stability in solution
1 | Cc1ncc(C[n+]2csc(CCO)c2C)c(N)n1 [Thiamine Cl HCl, thiamine chloride hydrochloride] | 95 % RH | exhibit instability in solution
2 | Cc1ncc(C[n+]2csc(CCO)c2C)c(N)n1.[Cl-] [Thiamine Cl, thiamine chloride] | 88 % RH | 
